Test results from patent publication US6689357B2, “Non-obligate predatory bacterium Burkholderia casidae and uses thereof” (Virginia Tech Intellectual Properties, Inc., priority 1997, dated 2004).
Values after ≈ are worked out from the molar mass of the structure shown.

Tested on: B. casidae strain 2.2N
Assay: microbe, parasite or virus in culture
Type: cell-based, Burkholderia casidae
Details: for MIC: Burkholderia, 2.2N, read-out: Minimal Inhibitory Concentration; for strain 2.2N resistant or susceptible to the antibiotic: Sceptor Pseudomonas/Resistant MIC Panel; for Minimal Inhibitory Concentration: against B. casidae strain 2.2N

Compound | MIC | strain 2.2N resistant or susceptible to the antibiotic | Minimal Inhibitory Concentration
NCC[C@H](O)C(=O)N[C@@H]1C[C@H](N)[C@@H](O[C@H]2O[C@H](CN)[C@@H](O)[C@H](O)[C@H]2O)[C@H](O)[C@H]1O[C@H]1O[C@H](CO)[C@@H](O)[C@H](N)[C@H]1O [Amikacin] | > 64 µg/mL | resistant | –
CCN1CCN(C(=O)N[C@@H](C(=O)N[C@@H]2C(=O)N3C(C(=O)O)=C(CSc4nnnn4C)CS[C@H]23)c2ccc(O)cc2)C(=O)C1=O [Cefoperazone] | > 16 µg/mL | resistant | –
CO/N=C(\C(=O)N[C@@H]1C(=O)N2C(C(=O)O)=C(COC(C)=O)CS[C@H]12)c1csc(N)n1 [Cefotaxime] | 64 µg/mL (≈ 141 µM) | susceptible | –
CC(C)(O/N=C(\C(=O)N[C@@H]1C(=O)N2C(C(=O)[O-])=C(C[n+]3ccccc3)CS[C@H]12)c1csc(N)n1)C(=O)O [Ceftazimine] | – | susceptible | 8 micrograms/ml
CO/N=C(\C(=O)N[C@@H]1C(=O)N2C(C(=O)O)=CCS[C@H]12)c1csc(N)n1 [Ceftizoxime] | 16 µg/mL (≈ 41.7 µM) | susceptible | –
CO/N=C(\C(=O)N[C@@H]1C(=O)N2C(C(=O)O)=C(CSc3nc(=O)c(=O)[nH]n3C)CS[C@H]12)c1csc(N)n1 [Ceftriaxone] | 128 µg/mL (≈ 231 µM) | susceptible | –
C[C@@H](O)[C@H]1C(=O)N2C(C(=O)O)=C(SCCN=CN)C[C@H]12 [Imipenem] | 16 µg/mL (≈ 53.4 µM) | – | –
CN(C)[C@@H]1C(O)=C(C(N)=O)C(=O)[C@@]2(O)C(O)=C3C(=O)c4c(O)cccc4[C@@](C)(O)[C@H]3C[C@@H]12 [Tetracycline] | > 8 µg/mL | – | –
NC[C@H]1O[C@H](O[C@H]2[C@H](O)[C@@H](O[C@H]3O[C@H](CO)[C@@H](O)[C@H](N)[C@H]3O)[C@H](N)C[C@@H]2N)[C@H](N)C[C@@H]1O [Tobramycin] | > 16 µg/mL | resistant | –
O=C(O)c1cn(C2CC2)c2cc(N3CCNCC3)c(F)cc2c1=O [ciprofloxacin] | – | susceptible | –
Gentamycin | – | resistant | >16 micrograms/ml
Tricarcillin/Clavulinic Acid | – | resistant | >128/2
Trimethoprim/Sulfamethoxazole | – | susceptible | 4/76
